Entries after “also recorded” stand apart in the source; their conditions may differ.
Key:
[1] = system: adolescent subjects previously diagnosed with ADHD who also had at least one genetic alteration in an mGluR network gene; test: Open-label Phase 1b clinical trial of NFC-1 in adolescent ADHD subjects with a CNV in an mGluR network gene; assay type: in vivo, human
[2] = system: dementia-related cognitive impairment; conditions: Phase I-III trials, dementia-related indications; cited from earlier work
[3] = system: adolescent subjects previously diagnosed with ADHD who also had at least one genetic alteration in an mGluR network gene; conditions: recently completed precision-medicine-based clinical trial; cited from earlier work
[4] = system: group I and group II/III mGluRs; conditions: Hirouchi 2000; cited from earlier work

Compound | OCD symptoms during therapy ([1]; eight of the 30 ADHD subjects with symptoms of OCD) | dermatillomania symptoms (ear scratching, bleeding ulcer) during therapy ([1]; one subject with OCD and a history of ear scratching) | score on Vanderbilt Scale items related to anxiety (nos. 41, 42, and 47) ([1]; week 5, two subjects, all 3 items, at enrollment maximum score of 3 on 2 of the 3 items) | total "never" score for all BRIEF anxiety/mood questions for all subjects ([1]; week 5 of dose escalation (50-400 mg bid), all 30 subjects, score at enrollment was 125) | total "often" score for all BRIEF anxiety/mood questions for all subjects ([1]; week 5 of dose escalation (50-400 mg bid), all 30 subjects, score at enrollment was 154) | safety and tolerability [2] | treatment of ADHD in subjects having a genetic alteration in an mGluR network gene [3] | activation of mGluRs in vitro [4]
O=C1CC[C@H](C(=O)N2CCCCC2)N1 [NFC-1, fasoracetam monohydrate] | OCD symptoms improved | dermatillomania symptoms had reduced | 3 | 191 | 77 | generally safe and well tolerated | – | –
O=C1CC[C@H](C(=O)N2CCCCC2)N1 [fasoracetam] | – | – | – | – | – | – | successfully treated | nonselective activator against all classes of mGluRs; also recorded: can stimulate both group I and group II/III mGluRs

— patent US11806341B2, “Methods of diagnosing and treating anxiety disorder” (THE CHILDREN'S HOSPITAL OF PHILADELPHIA, priority 2015, dated 2023)
